Experiments:
Assay type in all cases: in vivo
[1] = test system: blood calcitriol; assay: Blood/serum calcitriol after single oral dose in human volunteers (radioimmuno assay)
Experimental: (§1) In a typical example, five subjects were administered a single dosage of 552 mg calcium fructoborate upon informed consent, and blood was drawn immediately prior to administration and after 30, 60, 90, and 120 minutes. Calcitriol was measured using a standard radioimmuno assay from a commercial lab starting from 4 ml whole blood (numerous alternative methods are also deemed suitable, including those described in U.S. Pat. Nos. 4,585,741, 5,202,266, and 6,455,714). From each sample and for each time point, concentrations of calcidiol and calcitriol in serum were measured and the data are shown in FIGS. 1A to 1D. FIG. 1A depicts the effect of oral administration of calcium fructoborate on blood calcitriol 30 minutes after oral administration, FIG. 1B depicts the effect of oral administration of calcium fructoborate on blood calcitriol 60 minutes after oral administration, and FIG. 1C depicts the effect of oral administration of calcium fructoborate on blood calcitriol 90 minutes after oral administration. FIG. 1D depicts the effect of oral administration of calcium fructoborate on blood calcitriol 90-120 minutes after oral administration.
FIGS. 2A and 2B depict a graphic illustration of the results from this study where the biphasic mode of modulation of calcitriol is clearly seen between times 0-90 minutes (decrease) and 90-120 minutes (increase). In most cases, it is expected that the so increased calcitriol level will drop back to starting levels within 6 hours or less, and more typically within 4 hours, or less (data not shown). FIG. 3 depicts another graphic representation in which the exclusive modulation of calcitriol versus calcidiol is shown.
While not wishing to be bound by any theory or hypothesis, the inventors contemplate that the compounds according to the inventive subject matter increase serum concentration of calcitriol in a bi-modal manner. During the first 60 minutes, a moderate increase is observed in the case of subjects with low initial level of calcitriol (<30 pg/ml), but not in subjects with initial level >30 pg/ml. […]

[2] = test system: calcidiol; assay: Serum calcidiol after single oral dose in human volunteers; settings: single oral dosage of 552 mg, five subjects, 30-120 minutes after administration
Experimental: as §1

[3] = test system: serum calcium, serum phosphate, parathyroid hormone, calcitonin; assay: Serum calcium, phosphate, parathyroid hormone and calcitonin upon administration; settings: about 550 mg; data not shown
[4] = Intact Ca-Fructoborate in serum of orally treated fasted mice by LC-MS; settings: oral gavage 600 mcg/mouse; for Intact Ca-fructoborate in serum: fasted mice
Experimental: Using LC-MS, Ca-Fructoborate was detected and measured from serum samples at concentrations as low as 0.2 ppm and higher. This method was used to analyze the presence and amount of Ca-Fructoborate in serum collected from mice treated orally (gavage) with Ca-Fructoborate in liquid at dose 600 mcg/mouse for 30 and 60 minutes.
Detection of intact Ca-Fructoborate in sera collected from fasted mice treated orally with the compound for 30 or 60 minutes. Collected sera were diluted in running buffer and filtered through 0.45 PVDF filter. This solution was analyzed by LCMS for Ca-Fructoborate as the fructoborate anion.

For calcium fructoborate, the “modulation of calcitriol between times 0-90 minutes” value ([1]; single oral 552 mg, 0-90 minutes) was “decrease”, the “modulation of calcitriol between times 90-120 minutes” value ([1]; single oral 552 mg, 90-120 minutes) was “increase” and the calcitriol serum concentration ([1]; single oral dosage of 552 mg, five subjects, 30-120 minutes after administration) was “significantly and acutely affected”. The calcidiol concentration [2] was “remained unaffected”, the “change of serum calcium concentration” value [3] was 5-15% and the “change of serum concentration of calcitonin” value [3] was 10-30%. The “change of serum concentration of parathyroid hormone” value [3] was 10-30%, the “change of serum phosphate concentration” value [3] was 5-15% and the “Intact Ca-fructoborate in serum” value ([4]; 30 minutes) was 449 µg/mL. For the same substance, the “Intact Ca-fructoborate in serum” value ([4]; 60 minutes) was 556 µg/mL, the “bioavailability of the compound” value ([4]; mice (20 g by average)) was 556 mcg/ml of serum and the “delivery from intestine to bloodstream” value ([4]; mice, 30 and 60 minutes) was “in intact form and in time-dependent manner”.
